Patent US6623933B1 (priority 1999, dated 2003)
Where a name gives a salt, the structure may show the parent alone. Read-outs that look alike come from different tables or passages of the source.

Tests used:
[1] = molecular target: T1, GluR1 AMPA receptor (Rattus norvegicus, UniProt P19490); assay: Kainate-induced currents, Xenopus oocytes injected with GluR1 cRNA; type: cell-based
T1 construct: expressed in transfected cells; host or cells: Xenopus oocytes injected with GluR1 cRNA
Excerpt: (§1) Plasmids were obtained from the following individuals: Dr. Suzanne Zukin (Albert Einstein College of Medicine, Bronx, N.Y.), NR1100; Dr. Shigetada Nakanishi (Kyoto University Faculty of Medicine, Kyoto, Japan), NR2A; Dr. Stephen Heinemann (Salk Institute, San Diego, Calif.), GluR1 (flop), GluR3 (flop), and GluR6. Plasmids were linearized with BamH1 (NR1100), XhoI (NR2A, GluR1, GluR3) or XbaI (GluR6) prior to in vitro transcription with T3 (GluR1, GluR3, GluR6) or T7 (NR1100, NR2A) RNA polymerase using the Message Machine kit (Ambion, Austin, Tex.). […] RNA solutions (50-70 nl) were injected into oocytes for delivery of NR1100 (5 ng), NR1100:NR2A (1:10 ng), GluR1 (5 ng). GluR3 (5 ng), or GluR6 (20 ng). Oocytes were incubated in ND96 at 18-20° C. for 3-7 days prior to electrophysiological recording.
(§2) Steroid solutions were prepared as 70-100 mM frozen stocks in dimethyl sulfoxide (DMSO). The final DMSO concentration of all recording solutions was between 0.1% to 0.5% and was constant within an experiment.
(§3) Perfusion control and data acquisition were carried out using an automated oocyte electrophysiology workstation that was developed for the rapid collection of concentration-response data and real-time waveform analysis (Yaghoubi et al., Soc. Neurosci. Abstr. 20: 1109 (1995)). This system is implemented on a Macintosh IIci computer (Apple Computer, Cupertino, Calif.) equipped with MacA-DIOS II data acquisition and control hardware (GW Instruments, Somerville, Mass.). Drug application is controlled by the computer through a series of valves, using custom-written software based on the SuperScope II development environment, improving the efficiency and reproducibility of data collection. Experiments were carried out using an Axoclamp-2A voltage clamp amplifier (Axon Instruments, Foster City, Calif.) in two-electrode voltage clamp mode. Intracellular microelectrodes (1-3 MΩ) were filled with 3 M KCl. […] Membrane potential was clamped at −60 to −70 mV and stepped to −100 mV at the start of data acquisition unless otherwise stated. […] Current and voltage recordings were digitized at 100 Hz for analysis. GluR6 injected oocytes were treated for 10 min with 10 μg/ml concanavalin A to prevent fast desensitization.
(§4) Results are expressed as mean±S.E.M. Statistical comparisons were made using Student's t-test.

[2] = molecular target: T2, GluR3 AMPA receptor (Rattus norvegicus, UniProt P19492); assay: Kainate-induced currents, Xenopus oocytes injected with GluR3 cRNA; type: cell-based
T2 construct: expressed in transfected cells; host or cells: Xenopus oocytes injected with GluR3 cRNA
T2 sequence (P19492 23-888): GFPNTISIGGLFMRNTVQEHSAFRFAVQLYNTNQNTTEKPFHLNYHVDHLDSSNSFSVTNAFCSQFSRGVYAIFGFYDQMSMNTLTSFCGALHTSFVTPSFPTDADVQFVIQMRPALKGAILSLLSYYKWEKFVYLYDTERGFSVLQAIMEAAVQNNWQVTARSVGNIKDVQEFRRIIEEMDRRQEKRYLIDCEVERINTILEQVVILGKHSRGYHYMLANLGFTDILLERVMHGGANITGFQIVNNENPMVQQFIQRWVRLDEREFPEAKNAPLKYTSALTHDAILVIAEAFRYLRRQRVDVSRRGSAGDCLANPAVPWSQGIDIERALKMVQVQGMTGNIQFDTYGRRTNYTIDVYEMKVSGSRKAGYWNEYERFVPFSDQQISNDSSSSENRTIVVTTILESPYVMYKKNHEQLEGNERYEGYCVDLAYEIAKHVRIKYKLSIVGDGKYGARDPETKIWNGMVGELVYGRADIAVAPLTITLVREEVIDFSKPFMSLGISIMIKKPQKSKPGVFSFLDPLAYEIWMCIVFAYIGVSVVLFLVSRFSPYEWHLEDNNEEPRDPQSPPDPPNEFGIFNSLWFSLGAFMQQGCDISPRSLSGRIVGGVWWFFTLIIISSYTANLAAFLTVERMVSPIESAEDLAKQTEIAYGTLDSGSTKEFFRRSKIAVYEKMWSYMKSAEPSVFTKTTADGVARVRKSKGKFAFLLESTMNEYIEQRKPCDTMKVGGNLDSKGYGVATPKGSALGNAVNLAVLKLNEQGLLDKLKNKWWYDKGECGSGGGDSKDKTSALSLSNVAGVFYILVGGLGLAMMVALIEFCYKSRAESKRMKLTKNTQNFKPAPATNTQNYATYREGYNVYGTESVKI
Excerpt: as §1, §2, §3, §4

[3] = molecular target: T3, NR1100+NR2A NMDA receptor (Rattus norvegicus, UniProt P35439+Q00959); assay: NMDA-induced currents, Xenopus oocytes, Example 1; type: cell-based; conditions: for Percentage change in NMDA response: NR1100 + NR2A, steroid 100 μM, −100 mV
T3 construct: expressed in transfected cells; host or cells: Xenopus oocytes co-injected with NR1100 and NR2A cRNA
Excerpt: as §1, §2, §3, §4

[4] = molecular target: NR1001/NR2A (Rattus norvegicus, UniProt P35439+Q00959); set-up: agonist Emax: dose or concentration left out as unconfirmed
[5] = molecular target: NR1/NR2A (NR1100) (Rattus norvegicus, UniProt P35439+Q00959)
Sequence of NR1/NR2A (NR1100) (Q00959 23-1464, other chains not shown): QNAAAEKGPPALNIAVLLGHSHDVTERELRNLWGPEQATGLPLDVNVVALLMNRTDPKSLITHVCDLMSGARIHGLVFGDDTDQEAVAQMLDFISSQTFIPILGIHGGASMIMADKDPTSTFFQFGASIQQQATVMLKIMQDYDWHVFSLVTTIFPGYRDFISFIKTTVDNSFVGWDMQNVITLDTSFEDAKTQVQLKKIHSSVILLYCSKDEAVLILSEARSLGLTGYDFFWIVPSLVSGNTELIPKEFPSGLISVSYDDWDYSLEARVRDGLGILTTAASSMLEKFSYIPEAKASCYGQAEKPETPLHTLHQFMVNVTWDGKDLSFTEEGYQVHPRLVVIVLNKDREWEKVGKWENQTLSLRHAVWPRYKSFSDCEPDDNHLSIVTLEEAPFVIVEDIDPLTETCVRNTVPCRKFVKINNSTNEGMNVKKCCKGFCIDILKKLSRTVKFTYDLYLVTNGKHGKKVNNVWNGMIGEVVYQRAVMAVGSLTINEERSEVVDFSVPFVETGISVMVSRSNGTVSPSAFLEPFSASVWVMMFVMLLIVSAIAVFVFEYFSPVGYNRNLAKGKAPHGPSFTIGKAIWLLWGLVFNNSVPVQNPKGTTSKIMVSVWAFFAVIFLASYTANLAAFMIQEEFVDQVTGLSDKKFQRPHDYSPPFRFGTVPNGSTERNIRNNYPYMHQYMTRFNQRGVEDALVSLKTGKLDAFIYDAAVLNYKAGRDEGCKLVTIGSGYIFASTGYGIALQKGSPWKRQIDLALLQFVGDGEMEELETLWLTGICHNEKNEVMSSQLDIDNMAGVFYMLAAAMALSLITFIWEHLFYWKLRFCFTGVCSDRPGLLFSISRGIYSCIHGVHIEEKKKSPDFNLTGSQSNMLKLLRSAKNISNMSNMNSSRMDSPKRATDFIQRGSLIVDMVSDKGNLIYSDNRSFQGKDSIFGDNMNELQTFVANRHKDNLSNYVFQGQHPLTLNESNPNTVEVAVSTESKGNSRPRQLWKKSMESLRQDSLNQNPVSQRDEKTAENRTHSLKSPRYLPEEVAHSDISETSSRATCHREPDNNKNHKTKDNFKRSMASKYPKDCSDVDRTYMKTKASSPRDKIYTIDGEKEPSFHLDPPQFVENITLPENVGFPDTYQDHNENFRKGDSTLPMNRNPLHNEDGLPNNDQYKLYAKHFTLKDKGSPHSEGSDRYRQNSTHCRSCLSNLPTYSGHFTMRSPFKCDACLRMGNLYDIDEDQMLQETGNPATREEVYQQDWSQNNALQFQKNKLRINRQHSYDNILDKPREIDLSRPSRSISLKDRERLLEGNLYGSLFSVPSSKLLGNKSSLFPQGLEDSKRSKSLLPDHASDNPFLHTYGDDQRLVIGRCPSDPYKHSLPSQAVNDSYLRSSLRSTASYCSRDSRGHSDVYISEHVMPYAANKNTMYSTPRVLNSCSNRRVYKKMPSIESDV
Excerpt: (§5) Plasmids containing the NR1100 (NR1G) and NR2A cDNA inserts were kindly provided by Dr. Nakanishi (Kyoto University Faculty of Medicine, Kyoto, Japan). Plasmids containing the NR2B, NR2C and NR2D cDNA inserts were kindly provided by Dr. P. Seeburg (Heidelberg University, Heidelberg, Germany). Plasmids were linearized with appropriate restriction enzyme prior to in vitro transcription using the Message Machine kit (Ambion, Inc., Austin, Tex.).
(§6) Female, oocyte-positive Xenopus laevis frogs were purchased from Xenopus I (Dexter, Mich.). […] Oocytes were injected with 50 nL of RNA solutions using an electronic microinjector (Drummond Inc., Broomall, Pa.). […] The injected oocytes were used for experiments following 1-5 days of incubation in Barth's solution at 18-20° C.
(§7) The microelectrodes were fabricated from borosilicate glass capillaries with a programmed puller (Sutter Instrument Co., Calif.). Microelectrode resistance was 1-3 MΩ_when filled with 3 M KCl.
(§8) Except where otherwise stated, oocytes were clamped at a holding potential of −70 mV during data acquisition. The membrane current was filtered at 500 Hz and sampled at 100 Hz. Drugs were applied using a gravity-driven external perfusion system. The working volume of the recording chamber was 30 μl and the rate of the perfusion was 50 μl/sec. The drug application lasted 10 sec and was followed by 60 s wash. Data acquisition and external perfusion were controlled using custom-written software implemented in the SuperScope II development environment (GW Instruments, Mass.). All experiments were performed at room temperature of 22-24° C. Peak or steady-state current measurements were normalized and expressed as a fraction of the peak or steady-state control current measurements, which were performed before and after application of every single concentration of agonists or steroids.
(§9) Concentration-response data were analyzed by nonlinear regress ion using the logistic equation Response=Emax/(1+(EC50/c)^nH), where c is concentration, Emaxis the maximum response, nHis the Hill coefficient. The data are presented as mean±SEM. EC50values are averaged as logarithms (De Lean et al., Am. J. Physiol. 235: E97-E102 (1978))±the SEM of the log EC50. […] The pooled data were simultaneously fitted to the logistic equation, either with Emax and EC50 constrained to be identical in the presence and absence of PS, or allowing one or both to vary independently. […] This was regarded as indicating a significant treatment effect of PS, but the change in EC50and Emaxwas not considered significant. […] No attempt was made to test the generally small changes in nHfor statistical significance.

[6] = molecular target: NR1/NR2B (NR1100) (Rattus norvegicus, UniProt P35439+Q00960)
Sequence of NR1/NR2B (NR1100) (Q00960 27-1482, other chains not shown): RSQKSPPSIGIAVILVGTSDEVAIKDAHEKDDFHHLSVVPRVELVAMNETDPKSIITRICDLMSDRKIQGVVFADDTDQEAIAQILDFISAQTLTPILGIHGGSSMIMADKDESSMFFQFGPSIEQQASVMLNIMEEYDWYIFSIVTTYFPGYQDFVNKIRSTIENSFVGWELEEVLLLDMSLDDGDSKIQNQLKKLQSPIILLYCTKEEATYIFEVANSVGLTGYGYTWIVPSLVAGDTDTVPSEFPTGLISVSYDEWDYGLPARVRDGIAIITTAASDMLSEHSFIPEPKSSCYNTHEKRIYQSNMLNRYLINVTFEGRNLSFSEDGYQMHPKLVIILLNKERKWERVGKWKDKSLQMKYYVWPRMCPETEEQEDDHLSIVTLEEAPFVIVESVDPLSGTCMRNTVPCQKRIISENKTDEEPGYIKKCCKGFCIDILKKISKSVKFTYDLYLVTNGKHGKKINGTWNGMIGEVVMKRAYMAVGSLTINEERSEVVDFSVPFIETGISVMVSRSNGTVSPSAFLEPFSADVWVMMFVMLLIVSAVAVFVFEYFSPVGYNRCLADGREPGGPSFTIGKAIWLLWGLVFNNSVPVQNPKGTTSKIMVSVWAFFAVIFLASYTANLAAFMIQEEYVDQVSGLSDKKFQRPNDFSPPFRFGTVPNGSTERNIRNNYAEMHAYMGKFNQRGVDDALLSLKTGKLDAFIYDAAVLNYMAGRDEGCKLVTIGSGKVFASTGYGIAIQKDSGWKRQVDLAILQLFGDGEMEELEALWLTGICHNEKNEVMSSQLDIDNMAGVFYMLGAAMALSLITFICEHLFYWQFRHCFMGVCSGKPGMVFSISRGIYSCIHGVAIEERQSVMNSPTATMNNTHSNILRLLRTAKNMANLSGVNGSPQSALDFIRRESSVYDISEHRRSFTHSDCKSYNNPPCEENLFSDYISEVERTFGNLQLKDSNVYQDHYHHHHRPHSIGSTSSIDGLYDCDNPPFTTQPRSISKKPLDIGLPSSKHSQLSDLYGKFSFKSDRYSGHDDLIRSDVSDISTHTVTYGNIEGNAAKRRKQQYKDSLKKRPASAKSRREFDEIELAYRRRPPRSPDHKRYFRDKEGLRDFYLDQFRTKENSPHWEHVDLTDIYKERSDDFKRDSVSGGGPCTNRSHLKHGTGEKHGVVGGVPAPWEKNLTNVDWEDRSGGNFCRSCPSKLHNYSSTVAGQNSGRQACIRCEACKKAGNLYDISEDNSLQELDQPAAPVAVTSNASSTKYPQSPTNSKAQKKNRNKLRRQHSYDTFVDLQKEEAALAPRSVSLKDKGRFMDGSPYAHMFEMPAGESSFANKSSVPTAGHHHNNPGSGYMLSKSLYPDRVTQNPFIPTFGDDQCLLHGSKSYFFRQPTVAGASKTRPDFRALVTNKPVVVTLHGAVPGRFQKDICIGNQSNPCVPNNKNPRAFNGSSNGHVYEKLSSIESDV
Excerpt: as §5, §6, §7, §8, §9

[7] = molecular target: NR1/NR2D (NR1100) (Rattus norvegicus, UniProt P35439+Q62645)
Excerpt: as §5, §6, §7, §8, §9

[8] = read-out: agonist EC50, +100 μM PS

T1 sequence (P19490 19-907): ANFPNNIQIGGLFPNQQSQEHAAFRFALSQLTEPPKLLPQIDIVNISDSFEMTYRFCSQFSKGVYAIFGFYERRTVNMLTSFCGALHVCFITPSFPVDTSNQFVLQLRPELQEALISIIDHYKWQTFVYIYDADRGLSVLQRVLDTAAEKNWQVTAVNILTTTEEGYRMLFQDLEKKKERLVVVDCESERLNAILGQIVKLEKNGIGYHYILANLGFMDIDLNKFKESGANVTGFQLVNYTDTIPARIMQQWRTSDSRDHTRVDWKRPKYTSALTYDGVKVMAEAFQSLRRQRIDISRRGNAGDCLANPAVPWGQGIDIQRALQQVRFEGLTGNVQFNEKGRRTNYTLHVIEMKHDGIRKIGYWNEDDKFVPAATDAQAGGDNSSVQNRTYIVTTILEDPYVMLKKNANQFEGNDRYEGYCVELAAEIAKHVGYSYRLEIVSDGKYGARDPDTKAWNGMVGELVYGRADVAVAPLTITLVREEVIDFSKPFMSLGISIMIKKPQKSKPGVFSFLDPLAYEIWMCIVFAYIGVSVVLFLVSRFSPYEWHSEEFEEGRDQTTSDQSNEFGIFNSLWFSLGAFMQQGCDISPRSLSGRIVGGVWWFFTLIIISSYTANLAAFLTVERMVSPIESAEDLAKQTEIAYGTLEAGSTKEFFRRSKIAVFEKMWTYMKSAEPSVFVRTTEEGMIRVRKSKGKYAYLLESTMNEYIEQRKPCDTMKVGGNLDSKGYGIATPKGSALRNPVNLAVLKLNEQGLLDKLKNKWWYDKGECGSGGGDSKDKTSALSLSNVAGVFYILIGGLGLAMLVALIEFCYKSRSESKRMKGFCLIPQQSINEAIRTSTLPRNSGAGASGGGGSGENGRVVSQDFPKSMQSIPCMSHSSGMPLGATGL

## pregnenolone sulfate [PS]
[1]; GluR1, 100 μM kainate
  PS Emax, percentage change in kainate-induced current: −99%
[1]; GluR1, 200 μM PS
  inhibition of kainate response: 85±4%
[1]; GluR1, PS 100 μM
  reduction of kainate Imax: 83%
[1]; GluR1, steroid 100 μM
  inhibition of the response to kainate: over 70%
[1]; GluR1, steroid 100 μM, 100 μM kainate, −100 mV
  Percentage change in kainate response: −85 ± 1(8) %
[2]; GluR3, 100 μM kainate
  PS Emax, percentage change in kainate-induced current: −90%
[2]; GluR3, 200 μM PS
  inhibition of kainate response: 81±3%
[2]; GluR3, PS 100 μM
  reduction of kainate Imax: 71%
[2]; GluR3, steroid 100 μM
  inhibition of the response to kainate: over 70%
[2]; GluR3, steroid 100 μM, 100 μM kainate, −100 mV
  Percentage change in kainate response: −73 ± 3(8) %
[3]; 100 μM NMDA
  Percentage change in NMDA response: +281 ± 27(7) %
[3]; NR1100+NR2A, 100 μM NMDA
  maximum enhancement of NMDA response: 343%
  steroid Emax (NMDA-induced current relative to control): 4.43
[4]; NR1001/NR2A
  Maximum potentiation of NMDA-induced current by PS: 2.19±0.09 fold
  PS Emax: 1.19 ± 0.09
  PS nHill: 1.14 ± 0.10
[5]
  PS nH: 1.33 ± 0.08
[5]; 80 μM NMDA, 10 μM glycine
  PS Emax (% Change): +167 ± 7%
[5]; 100 μM PS, 80 μM NMDA
  enhancement of NMDA plus glycine current: 62±8%
[6]
  PS nH: 1.42 ± 0.11
[6]; 100 μM PS, […] μM NMDA
  enhancement of NMDA-induced current: 78±9%
[6]; […] μM NMDA, 10 μM glycine
  PS Emax (% Change): +202 ± 10%
[7]
  PS nH: 1.16 ± 0.08
[7]; 10 μM NMDA, 10 μM glycine
  PS Emax (% Change): −70 ± 6%
[7]; 100 μM PS, 10 μM NMDA
  inhibition of NMDA response: 26±1%

## CN[C@H](CC(=O)O)C(=O)O [NMDA, N-methyl-D-aspartate]
[3]; NR1100+NR2A, +100 μM 3α5βS
  NMDA Emax (normalized to 100 μM NMDA response): 0.35
  NMDA nH: 1.66
[3]; NR1100+NR2A, +100 μM PS
  NMDA Emax (normalized to 100 μM NMDA response): 3.21
  NMDA nH: 1.54
[3]; NR1100+NR2A, control
  NMDA Emax (normalized to 100 μM NMDA response): 1.14
  NMDA nH: 1.43
[3]; read-out: NMDA EC50, NR1100+NR2A, +100 μM 3α5βS
  EC50: 15 µM
[3]; read-out: NMDA EC50, NR1100+NR2A, +100 μM PS
  EC50: 30 µM
[4]; NR1001/NR2A, absence of PS
  agonist Emax: 1.27 ± 0.04
  agonist nHill: 1.46 ± 0.07
[4]; NR1001/NR2A, presence of 100 mM PS
  agonist nHill: 1.21 ± 0.15
[4]; NR1001/NR2A, presence of PS
  agonist Emax: (2.15 ± 0.17)
[5]; +100 μM PS
  agonist Emax: 1.60
  agonist nH: 1.20 ± 0.06
[5]; no PS
  agonist nH: 1.13 ± 0.04
[5]; no PS, normalized to 200 μM NMDA plus 10 μM glycine
  agonist Emax: 1.36 ± 0.04
[5]; [8]
  EC50: 39 µM
[5]; read-out: agonist EC50, no PS
  EC50: 73 µM
[6]; +100 μM PS
  agonist Emax: 1.47
  agonist nH: 1.32 ± 0.11
[6]; no PS
  agonist Emax: 1.00 ± 0.02
  agonist nH: 1.28 ± 0.08
[6]; [8]
  EC50: 12 µM
[7]; +100 μM PS
  agonist Emax: 0.71
  agonist nH: 1.17 ± 0.01
[7]; no PS
  agonist Emax: 1.02 ± 0.01
  agonist nH: 1.26 ± 0.09
[7]; read-out: agonist EC50, +100 μM PS, unit cell empty
  EC50: 6.2 µM
[7]; read-out: agonist EC50, no PS
  EC50: 8 µM

## CC(=O)[C@H]1CC[C@H]2[C@@H]3CC[C@@H]4C[C@H](OS(=O)(=O)O)CC[C@]4(C)[C@H]3CC[C@]12C [3α5βS, 3α5β-pregnanolone sulfate]
[1]
  Percentage change in kainate response: −47 ± 12(3) %
[2]
  Percentage change in kainate response: −63 ± 8(4) %
[3]
  EC50: 41 µM
[3]; 100 μM NMDA
  Percentage change in NMDA response: −64 ± 3(7) %
[4]; splice variant 001 /NR2A
  3α5βS Emax: −0.89 ± 0.05
  3α5βS nHill: 0.95 ± 0.11
[5]
  3α5βS nH: 1.39 ± 0.07
[6]
  3α5βS nH: 1.06 ± 0.04
[7]
  3α5βS nH: 1.14 ± 0.16
